This note sets out measurements from patent US9334530B2, “Methods for making and imaging arrays that comprise a plurality of different biomolecules” (AmberGen, Inc., priority 2007, dated 2016).

In the experiment the target is T1, PKCα (Homo sapiens, UniProt P17252).
T1 construct: isolate and photo-release endogenous PKCa from the undiluted detergent fractionated HeLa cell extracts; endogenous in cells; host or cells: HeLa cells (ATCC)
The experiment can be described thus: PMA mediated PKCα sub-cellular translocation, measured by kinase activity after photocleavable antibody isolation. Conditions: cultured HeLa cells stimulated with 200 nM PMA for 5 min, detergent fractionated; based on kinase activity of isolated PKCα; n=4. The format is cell-based. The protocol:
FIG. 20. Phorbol ester (PMA) mediated protein kinase Cα (PKCα) sub-cellular translocation as measured by functional activity following isolation with photocleavable antibodies. Cultured HeLa cells were stimulated with 200 nM PMA for 5 min and detergent fractionated into the cytosol and membrane compartments prior to isolation and purification with the photocleavable antibodies.
Cultured HeLa cells (ATCC; Manassas, Va.) were stimulated for 5 min with 200 nM Phorbol-12-Myristate-13-Acetate (PMA; EMD Biosciences, Inc., San Diego, Calif.) and subsequently detergent fractionated into sub-cellular compartments according to reported procedures [Ramsby et al. (1994) Electrophoresis 15, 265-277; Ramsby & Makowski. (1999) Methods Mol Biol 112, 53-66; Chiang et al. (2000) J Biochem Biophys Methods 46, 53-68]. PMA is a potent activator of PKCα and is well known to cause translocation of the kinase from the cytosolic to the membrane sub-cellular compartments [Ross & Joyner. (1997) Endothelium 5, 321-332; Bazan & Rapoport. (1996) JPharmacol Toxicol Methods 36, 87-95; Yazlovitskaya & Melnykovych. (1995) Cancer Lett 88, 179-183]. […]

Take `CCCCCCCCCCCCCC(=O)O[C@@H]1[C@@H](C)[C@@]2(O)[C@@H](C=C(CO)C[C@]3(O)C(=O)C(C)=C[C@@H]23)[C@@H]2C(C)(C)[C@]12OC(C)=O` [PMA, Phorbol-12-Myristate-13-Acetate]: the “relative sub-cellular distribution of PKCα: cytosol” value amounted to 16±4% and the “relative sub-cellular distribution of PKCα: membrane” value came to 84±3%.
